Data as given in paper PMC6291207 (ChemMedChem, 2018).

Assays:
Aiolos = Aiolos (Homo sapiens, UniProt Q96SW2+Q9UKT9); settings: for Dmax (maximal degradation achieved), Aiolos: MM1S cells, 24 hours treatment, normalized to tubulin
MM1S cells = settings: read-out: IC50 inhibition of cell proliferation, 72 hours, MTS assay
CRBN = CRBN (Homo sapiens, UniProt Q96SW2); experiment: SPR binding assay with immobilized His-tagged CRBN; settings: for Kd: read-out: CRBN Kd, surface plasmon resonance, average of at least 2 experiments, errors = standard error of the mean, N.B. = no binding observed
Sequence of CRBN (Q96SW2 whole entry): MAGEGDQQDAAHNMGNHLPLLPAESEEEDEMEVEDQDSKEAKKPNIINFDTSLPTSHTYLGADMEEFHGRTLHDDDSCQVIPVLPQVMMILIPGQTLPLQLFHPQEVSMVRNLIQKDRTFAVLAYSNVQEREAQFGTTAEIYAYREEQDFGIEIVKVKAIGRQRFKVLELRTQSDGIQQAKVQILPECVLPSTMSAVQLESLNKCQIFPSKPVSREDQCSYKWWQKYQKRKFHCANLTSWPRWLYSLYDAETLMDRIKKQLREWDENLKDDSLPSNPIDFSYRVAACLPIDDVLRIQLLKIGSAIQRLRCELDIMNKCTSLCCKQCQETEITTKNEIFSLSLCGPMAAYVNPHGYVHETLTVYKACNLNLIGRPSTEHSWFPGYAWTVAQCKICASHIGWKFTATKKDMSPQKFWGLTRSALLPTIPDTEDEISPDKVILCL

Sequence of Aiolos (Q9UKT9 whole entry): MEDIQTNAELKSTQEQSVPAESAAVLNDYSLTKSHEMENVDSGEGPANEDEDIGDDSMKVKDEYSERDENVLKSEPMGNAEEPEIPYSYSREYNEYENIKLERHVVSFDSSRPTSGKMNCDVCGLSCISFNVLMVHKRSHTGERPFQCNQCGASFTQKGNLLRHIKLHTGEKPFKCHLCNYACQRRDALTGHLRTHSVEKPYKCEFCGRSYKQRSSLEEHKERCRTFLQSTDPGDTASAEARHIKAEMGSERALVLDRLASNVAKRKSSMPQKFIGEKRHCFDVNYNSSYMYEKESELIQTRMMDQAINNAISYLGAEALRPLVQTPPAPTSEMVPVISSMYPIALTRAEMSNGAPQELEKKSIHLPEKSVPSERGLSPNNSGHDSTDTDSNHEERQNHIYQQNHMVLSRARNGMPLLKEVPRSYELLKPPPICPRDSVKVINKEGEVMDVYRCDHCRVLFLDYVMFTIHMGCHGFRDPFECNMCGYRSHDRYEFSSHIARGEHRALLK
Sequence of Aiolos (Q96SW2 whole entry): as the sequence (Q96SW2 whole entry) above
Sequence of Aiolos (Q16531 whole entry partner): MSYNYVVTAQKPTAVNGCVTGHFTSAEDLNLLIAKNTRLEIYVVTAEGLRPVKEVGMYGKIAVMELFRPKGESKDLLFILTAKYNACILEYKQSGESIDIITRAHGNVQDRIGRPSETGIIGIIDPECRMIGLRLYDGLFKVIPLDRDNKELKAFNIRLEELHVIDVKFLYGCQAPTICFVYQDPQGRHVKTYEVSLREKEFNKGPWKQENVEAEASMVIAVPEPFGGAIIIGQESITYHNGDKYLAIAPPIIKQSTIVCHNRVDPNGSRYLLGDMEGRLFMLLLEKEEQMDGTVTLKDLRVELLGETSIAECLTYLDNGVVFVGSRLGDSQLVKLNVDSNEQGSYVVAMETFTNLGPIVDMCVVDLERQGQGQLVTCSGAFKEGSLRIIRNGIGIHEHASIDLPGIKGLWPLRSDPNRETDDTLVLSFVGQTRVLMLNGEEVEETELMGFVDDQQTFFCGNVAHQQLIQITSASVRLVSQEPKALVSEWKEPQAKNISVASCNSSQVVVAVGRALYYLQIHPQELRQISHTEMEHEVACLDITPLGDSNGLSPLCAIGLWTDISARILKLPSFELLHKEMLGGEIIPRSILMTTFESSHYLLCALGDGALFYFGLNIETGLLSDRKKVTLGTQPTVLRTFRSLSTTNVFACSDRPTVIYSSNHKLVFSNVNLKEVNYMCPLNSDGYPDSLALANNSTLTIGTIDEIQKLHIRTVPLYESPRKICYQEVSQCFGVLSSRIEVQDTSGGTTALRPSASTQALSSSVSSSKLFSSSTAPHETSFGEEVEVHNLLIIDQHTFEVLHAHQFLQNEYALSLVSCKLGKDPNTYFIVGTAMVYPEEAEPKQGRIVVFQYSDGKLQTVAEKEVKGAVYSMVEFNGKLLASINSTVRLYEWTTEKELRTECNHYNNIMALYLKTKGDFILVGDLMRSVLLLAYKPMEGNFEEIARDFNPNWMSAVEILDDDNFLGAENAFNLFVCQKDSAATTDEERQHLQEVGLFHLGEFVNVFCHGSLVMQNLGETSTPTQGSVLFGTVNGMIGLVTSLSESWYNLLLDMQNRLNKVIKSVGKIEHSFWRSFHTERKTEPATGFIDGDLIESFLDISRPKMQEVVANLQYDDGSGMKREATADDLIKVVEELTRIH

Molecule `Nc1cccc2c1C(=O)N(C1CCC(=O)NC1=O)C2=O` (centres unmarked) [Compound 13, Pomalidomide, reference compound] has a Dmax (Aiolos; MM1.S, read-out: Dmax (maximal degradation achieved), Aiolos) greater than 95%.
In the case of `O=C1CCC(N2C(=O)c3cccc(F)c3C2=O)C(=O)N1` (centres unmarked) [Compound 17], the “Dmax (maximal degradation achieved), Aiolos” value (Aiolos) is reported as 83%, the IC50 (MM1S cells) is reported as 3.57 µM and the “fold less affinity for CRBN than Pomalidomide and Compound 19” value (CRBN; compared with Pomalidomide and Compound 19) is reported as “roughly 2 fold”. The Kd (CRBN) was 0.558 ± 0.051 µM.
`Cc1cccc2c1C(=O)N(C1CCC(=O)NC1=O)C2=O` (centres unmarked) [Compound 19] was tested, and the “Dmax (maximal degradation achieved), Aiolos” value (Aiolos) was 85%, the IC50 (MM1S cells) was 0.128 µM and the Kd (CRBN) was 0.325 ± 0.024 µM.
